Structures can show the parent of a compound that is named as a salt.
Tests used:
[1] = biological target: T1, Na^+ /H^+ exchanger of rabbit erythrocytes (Oryctolagus cuniculus, UniProt P23791); test: Inhibition of the Na^+ /H^+ exchanger of rabbit erythrocytes (Na^+ influx by flame photometry); assay type: cell-based, rabbit (New Zealand White); settings: pH 7.4, 37° C., hyperosmolar salt/sucrose medium, cholesterol-fed rabbits, read-out: IC 50, Na^+ /H^+ -exchanger inhibition
T1 construct: endogenous in cells; host or cells: erythrocytes in heparinised blood of cholesterol-fed New Zealand White rabbits (Ivanovas)
T1 sequence (P23791 whole entry): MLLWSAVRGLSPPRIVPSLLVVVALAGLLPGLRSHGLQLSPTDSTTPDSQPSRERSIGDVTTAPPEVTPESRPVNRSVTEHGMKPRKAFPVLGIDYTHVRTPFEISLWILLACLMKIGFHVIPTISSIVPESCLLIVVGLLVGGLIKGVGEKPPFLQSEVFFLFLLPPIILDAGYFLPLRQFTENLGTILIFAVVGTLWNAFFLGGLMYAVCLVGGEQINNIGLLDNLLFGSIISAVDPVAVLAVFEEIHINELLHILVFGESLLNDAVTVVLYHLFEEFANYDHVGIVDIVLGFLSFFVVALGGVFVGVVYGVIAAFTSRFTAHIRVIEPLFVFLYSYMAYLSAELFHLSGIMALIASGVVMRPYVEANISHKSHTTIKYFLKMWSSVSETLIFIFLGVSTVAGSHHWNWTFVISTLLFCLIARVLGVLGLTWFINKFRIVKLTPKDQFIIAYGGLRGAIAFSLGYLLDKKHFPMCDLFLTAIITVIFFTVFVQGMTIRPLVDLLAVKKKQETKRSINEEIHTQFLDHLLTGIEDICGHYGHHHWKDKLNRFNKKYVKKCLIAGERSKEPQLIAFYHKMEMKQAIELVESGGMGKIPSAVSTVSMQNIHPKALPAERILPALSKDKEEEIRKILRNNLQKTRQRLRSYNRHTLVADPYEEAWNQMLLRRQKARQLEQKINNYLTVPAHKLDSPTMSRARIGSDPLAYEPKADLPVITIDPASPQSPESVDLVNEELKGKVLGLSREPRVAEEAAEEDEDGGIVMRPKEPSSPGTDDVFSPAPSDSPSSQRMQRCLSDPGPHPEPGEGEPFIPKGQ
Excerpt: Inhibition of the Na^+ /H^+ exchanger of rabbit erythrocytes:
New Zealand White rabbits (Ivanovas) were given a standard diet containing 2% cholesterol for 6 weeks in order to activate Na^+ /H^+ exchange and thus render it possible to determine the Na^+ influx into the erythrocytes via Na^+ /H^+ exchange by flame photometry. The blood was removed from the aural arteries and rendered incoagulable using 25 IU/ml potassium heparin. A portion of each sample was used for determining, in duplicate, the hematocrit by centrifugation. Aliquots of in each case 100 μl were used for measuring the initial content of Na^+ in the erythrocytes.
In order to determine the amiloride-sensitive sodium influx, 100 μl of each blood sample were incubated, at pH 7.4 and 37° C., in in each case 5 ml of a hyperosmolar salt/sucrose medium (mmol/l:140 NaCl, 3 KCl, 150 sucrose, 0.1 ouabain, 20 tris(hydroxymethyl)aminomethane). After that, the erythrocytes were washed three times with ice-cold MgCl2 /ouabain solution (mmol/l: 112 MgCl2, 0.1 ouabain), and haemolyzed in 2.0 ml of distilled water. The intracellular content of sodium was determined by flame photometry.
The net influx of Na^+ was calculated from the difference between the initial sodium values and the sodium content of the erythrocytes after incubation. The amiloride-inhibitable sodium influx was given by the difference in the sodium content of the erythrocytes after incubation with and without 3×10^-4 mol/l amiloride. The same procedure was employed for the compounds according to the invention.

rat hearts = settings: isolated rat hearts; cited from earlier work
[2] = tested on: disturbances of cardiac rhythm; settings: literature; cited from earlier work

Structure (SMILES) | IC50 [1] [nM] | other results
CC(Cc1cccc(C(F)(F)F)c1)C(=O)N=C(N)N (racemic) [Example 5, 2-Methyl-3-(3-trifluoromethylphenyl)propionoguanidide hydrochloride] | 50 | 
N=C(N)NC(=O)c1nc(Cl)c(N)nc1N [amiloride] |  | suppression of artificially induced ventricular fibrillation (rat hearts): completely suppress; antiarrhythmic effect [2]: only weakly expressed; side effects when treating disturbances of cardiac rhythm [2]: hypotensive and saluretic effects
NC(N)=NC(=O)CCc1ccccc1C(F)(F)F [Example 2, 3-(2-Trifluoromethylphenyl)propionoguanidide] | 500 | 
CCN(c1nc(N)c(C(=O)NC(=N)N)nc1Cl)C(C)C [ethylisopropyl amiloride, Ethylisopropyl amiloride] |  | potency relative to amiloride, ventricular fibrillation (rat hearts): even more potent than amiloride
NC(N)=NC(=O)CCc1cccc(C(F)(F)F)c1 [Example 1, 3-(3-Trifluoromethylphenyl)propionoguanidide] | 600 | 
NC(N)=NC(=O)CCc1cccc(OC(F)(F)F)c1 [Example 3, 3-(3-Trifluoromethoxyphenyl)propionoguanidide hydrochloride] | 700 | 

Reference: US5567734A, “Phenyl-substituted alkylcarboguanidides carrying perfluoroalkyl groups, a process for their preparation, their use as a medicament or a diagnostic agent, and a medicament containing them” (priority 1994, dated 1996)
